Source: patent publication US7674771B2, “Antimicrobial peptides and utilization of the same” (Toagosei Co., Ltd, priority 2003, dated 2010)
Ends that are not written are not given here.

Test system: methicillin-resistant Staphylococcus aureus (MRSA, No. 164 strain)
Experiment: Treatment effect test on mice infected by MRSA, bacterial count in intestine content
Type: in vivo
Details: oral 100 mg/kg; for MRSA bacterial quantity in intestine content, administered group 1 / MRSA bacterial quantity in intestine content, administered group 2 / MRSA bacterial quantity in intestine content, administered group 3 / MRSA bacterial quantity in intestine content, administered group 4 / MRSA bacterial quantity in intestine content, administered group 5 / MRSA bacterial quantity in intestine content, Average: mice; for MRSA bacterial quantity in intestine content, administered group 1 / MRSA bacterial quantity in intestine content, administered group 2 / MRSA bacterial quantity in intestine content, administered group 3 / MRSA bacterial quantity in intestine content, administered group 4 / MRSA bacterial quantity in intestine content, administered group 5: approximately 24 hours after administration; for MRSA bacterial quantity in intestine content, Average: average of groups 1-5
Experimental: The following test was performed to evaluate the treatment effect on mice infected by bacterial (MRSA) of sample 22 obtained by synthesis.
Mice (ICR, SLC, male, 5 weeks old) were prepared by rearing on drinking water mixed with amphotericin B (AMPH: product of Bristol-Myers Company) and tetracycline, such that their concentrations are 10 μg/mL (AMPH) and 2000 μg/mL (tetracycline) respectively, a week before the start of the test, and the immunity of the mice was weaken by administrating 200 mg/kg amount of cyclophosphamide into the abdominal for 3 days from the fourth day prior to the test.
Bacterial suspension prepared by suspending methicillin-resistant Staphylococcus aureus (MRSA, No. 164 strain) in 10% (w/v) of mucin solution was orally administered to the mice at a bacterial administration quantity of 10^8 cells/mouse, thereby eliciting MRSA infection.
One hour after the bacterial inoculation, antimicrobial agent prepared by suspending the test material (therefore polypeptide of sample 22) in 10% of gum arabic solution was orally administered. The administered quantity of suspension was 100 mg/kg. A total of 5 test groups, with each test group containing 5 test mice, were tested. For comparison, antimicrobial agent prepared by suspending vancomycin in 10% of gum arabic solution was orally administered to the test mice under the same conditions.
After the drug administration, test mice were slaughtered approximately 24 hours later, and the contents in the intestine extracted, and the bacterial count of MRSA examined. More specifically, 1.8 mL of physiological saline was added to and mixed with approximately 0.2 g of intestine contents. A fixed quantity of such mixture was smeared on mannitol agar medium (product of Nissui Pharmaceutical Co., Ltd) including gentamicin (GM) with a concentration of […], and cultured for 3 days at 37° C.

Compound	MRSA bacterial quantity in intestine content, administered group 1	MRSA bacterial quantity in intestine content, administered group 2	MRSA bacterial quantity in intestine content, administered group 3	MRSA bacterial quantity in intestine content, administered group 4	MRSA bacterial quantity in intestine content, administered group 5	MRSA bacterial quantity in intestine content, Average	treatment effect on MRSA-infected mice, in words (compared with vancomycin)
LKRKLQRVVYWLL-CONH2 (LKRKLQRVVYWLL-NH2) [sample 22]	36 ×10^3 cells/g	35 ×10^3 cells/g	30 ×10^3 cells/g	16 ×10^3 cells/g	26 ×10^3 cells/g	29 ×10^3 cells/g	exhibited the same effect as the drug including vancomycin
CN[C@H](CC(C)C)C(=O)N[C@H]1C(=O)N[C@@H](CC(N)=O)C(=O)N[C@H]2C(=O)N[C@H]3C(=O)N[C@H](C(=O)N[C@H](C(=O)O)c4cc(O)cc(O)c4-c4cc3ccc4O)[C@H](O)c3ccc(c(Cl)c3)Oc3cc2cc(c3O[C@@H]2O[C@H](CO)[C@@H](O)[C@H](O)[C@H]2O[C@H]2C[C@](C)(N)[C@H](O)[C@H](C)O2)Oc2ccc(cc2Cl)[C@H]1O [Vancomycin, vancomycin, reference compound]	8 ×10^3 cells/g	10 ×10^3 cells/g	43 ×10^3 cells/g	22 ×10^3 cells/g	26 ×10^3 cells/g	22 ×10^3 cells/g	–
